Data reported in patent publication US20160346249A1 (priority 2012, published 2016).

Columns and labels:
[1] = In vitro metabolism in human hepatocytes; details: 100 μM
Description: Cryopreserved human hepatocytes (male) that are prepared by XenoTech, LLC (Lenexa, Kans.), are thawed on the day of use and resuspended in Waymouth's incubation media. The enzymatic activity of hepatocytes is monitored using 7-ethoxycoumarin and 7-hydroxycoumarin as substrates. […] The incubations are carried out for 4 hours with 1×10^6 viable cells/ml. […] At 0 and 4 hour, cell suspensions are extracted using two volumes of ice cold methanol. After centrifugation, the extracts are stored at −20° C. until further sample processing. The solvent in the samples are dried under a stream of nitrogen, and resuspended in methanol:water (1:1) before analysis.
The extracts of the 4 hour incubation mixture are analyzed by liquid chromatography/electrospray ionization-mass spectrometry (LC/ESI-MS) in the positive and negative ion modes to screen for possible metabolites. HPLC Methods 1 and 2 are used to find potential metabolites, and the HPLC and mass spectrometry systems are described in Table 56. The same instrumentation and methods in HPLC Method 1 are used in HPLC Method 2 with the exception that the mobile phases and gradient are changed to 0.4% HCOOH in H2O for mobile A and CH3OH for mobile phase B. The mass spectrometer is LCQ™ Ion Trap Mass Spectrometer and is in either the positive or negative electrospray mode with the ion spray set at 4.5 kV. The capillary temperature is 250° C., the nitrogen sheath gas flow rate is ˜80 unit, the auxiliary nitrogen gas flow rate is 20 unit, and the collision gas is helium.

CYP2C19 = CYP2C19 (Homo sapiens, UniProt P33261); test: Inhibition of human CYP activity in microsomes: (S)-mephenytoin 4′-hydroxylation; details: read-out: IC50, CYP2C19 (S)-Mephenytoin 4′-hydroxylation; pooled human liver microsomes; 10 to 30 min at 37° C.
Chain of CYP2C19 (P33261 whole entry): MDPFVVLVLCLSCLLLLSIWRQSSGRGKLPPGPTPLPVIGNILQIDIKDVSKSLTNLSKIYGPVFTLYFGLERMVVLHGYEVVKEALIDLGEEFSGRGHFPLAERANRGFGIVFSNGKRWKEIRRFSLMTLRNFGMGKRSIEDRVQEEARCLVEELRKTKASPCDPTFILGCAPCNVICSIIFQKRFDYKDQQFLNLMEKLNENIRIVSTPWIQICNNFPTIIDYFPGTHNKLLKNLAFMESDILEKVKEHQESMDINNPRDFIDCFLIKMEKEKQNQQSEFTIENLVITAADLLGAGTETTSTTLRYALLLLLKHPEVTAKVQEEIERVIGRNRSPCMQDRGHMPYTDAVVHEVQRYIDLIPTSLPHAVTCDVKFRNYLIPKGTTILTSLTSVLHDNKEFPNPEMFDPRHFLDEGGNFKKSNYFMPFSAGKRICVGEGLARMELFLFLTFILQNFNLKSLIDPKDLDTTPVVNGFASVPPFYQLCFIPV

[2] = test system: FMO, rat liver microsome (RLM); test: FMO dependent metabolism (pre-incubation temperature), rat liver microsomes; details: for formation from benzydamine 200 μM, AUC ratio to internal standard (mean ± SD): RLM, positive control
Description: (§1) The microsomal incubation mixtures (ca. 0.2 mL) were prepared in triplicate in 0.1M potassium phosphate buffer (pH 7.4) containing 0.25 mg/mL microsomal protein (RLM and HLM), 1 mM EDTA, 4 mM MgCl2, and […]. Incubation mixtures were pre-incubated aerobically in a shaking water bath at 37° C. and 45° C. respectively for ca. 5 minutes. The reaction was initiated by the addition of NADPH (final concentration of 1 mM). […] For the positive controls, benzydamine (Sigma-Aldrich, St. Louis, Mo.) (final concentration 200 μM) was used in the incubation mixture. For the negative controls, water was used in the incubation mixtures instead of microsome protein. The mixtures were kept at ca. −20° C. before analysis by LC-MS/MS.
(§2) The incubation of benzydamine (positive control, 200 μM) was carried out concurrently and the formation of benzydamine N-oxide was monitored by LC-MS/MS.

[3] = test system: FMO, human liver microsome (HLM); test: FMO dependent metabolism (pre-incubation temperature), human liver microsomes; details: HLM, positive control
Description: as §1, §2

[4] = NADPH dependent metabolism, rat liver microsomes; format: in vitro ADME; details: RLM
Description: (§3) Bicifadine (10 μM) was used as the positive control and the formation of the lactam metabolites of bicifadine (M-12) was monitored.

[5] = NADPH dependent metabolism, human liver microsomes; format: in vitro ADME; details: HLM
Description: as §3

[6] = human, in vivo; cited from earlier work
[7] = eight weeks of treatment; cited from earlier work

SMILES: CCOc1ccc2ccc(=O)oc2c1 [7-ethoxycoumarin, reference compound]
- metabolized after 4 hours incubation ([1]; male, human, hepatocytes, 4 h): 68.9%

SMILES: O=c1ccc2ccc(O)cc2o1 [7-hydroxycoumarin, reference compound]
- metabolized after 4 hours incubation ([1]; activity control substrate): 99.1%

SMILES: CC[C@@]1(c2ccccc2)C(=O)NC(=O)N(Cc2ccccc2)C1=O [(R)-N-3-benzyl-Phenobarb-ital]
- IC50 (CYP2C19): 300 nM

SMILES: C[N+](C)([O-])CCCOc1nn(Cc2ccccc2)c2ccccc12 [Benzydamine N-oxide, benzydamine N-oxide]
- formation from benzydamine 200 μM, AUC ratio to internal standard (mean ± SD) ([2]; pre-treatment 37° C.): 75.35 ± 0.75
- formation from benzydamine 200 μM, AUC ratio to internal standard (mean ± SD) ([2]; pre-treatment 45° C.): 15.86 ± 1.31
- formation from benzydamine 200 μM, AUC ratio to internal standard (mean ± SD) ([3]; pre-treatment 37° C.): 35.70 ± 0.86
- formation from benzydamine 200 μM, AUC ratio to internal standard (mean ± SD) ([3]; pre-treatment 45° C.): 7.68 ± 1.51

SMILES: O=C1NC[C@H]2C[C@@]12c1ccc(Cl)c(Cl)c1 [EB-10101 isomer, (1S,5R)-5-(3,4-dichlorophenyl)-3-azabicyclo[3.1.0]hexan-4-one]
- area ratio isomer vs EB-10101 [4]: ~140 fold
- amount formed with 37° C. vs 45° C. pre-treatment ([2]; rat, 30 min, 10 μM, pH 7.4): 7.3 fold
- area ratio isomer vs EB-10101 [5]: ca. 25 fold

SMILES: COC[C@@H]1[C@@H](c2ccc(Cl)c(Cl)c2)C[C@@H]2CC[C@H]1N2 [GSK372475]
- benefit in comparison to placebo [6]: failed to demonstrate a significant benefit in comparison to placebo

SMILES: N[C@@H]1CC[C@@H](c2ccc(Cl)c(Cl)c2)c2ccccc21 [SEP-289]
- primary efficacy endpoint vs placebo (17-item HAM-D) [7]: did not meet the primary efficacy endpoint compared to placebo
